Reference: patent publication US20070202179A1, “Low Dose Pharmaceutical Products” (priority 2004, published 2007)

Target: T1, human PPAR alpha (Homo sapiens, UniProt Q07869)
T1 sequence (Q07869 1-468): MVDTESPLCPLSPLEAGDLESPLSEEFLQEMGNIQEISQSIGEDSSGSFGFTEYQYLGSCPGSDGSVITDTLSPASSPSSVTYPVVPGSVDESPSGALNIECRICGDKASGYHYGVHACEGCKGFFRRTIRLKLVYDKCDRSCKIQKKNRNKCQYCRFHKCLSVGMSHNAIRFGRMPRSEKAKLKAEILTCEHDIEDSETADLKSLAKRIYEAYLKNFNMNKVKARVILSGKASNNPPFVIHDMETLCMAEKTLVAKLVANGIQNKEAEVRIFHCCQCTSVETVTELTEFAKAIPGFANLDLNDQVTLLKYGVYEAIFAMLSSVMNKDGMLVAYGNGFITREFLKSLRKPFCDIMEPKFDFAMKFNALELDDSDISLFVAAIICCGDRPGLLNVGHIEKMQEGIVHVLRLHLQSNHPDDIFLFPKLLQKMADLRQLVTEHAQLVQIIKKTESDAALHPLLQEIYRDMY
Assay: Effectiveness of Compound 1 at very low daily dosage regimes
Type: in vivo
Settings: investigated for dyslipidemia, syndrome X and atherosclerosis
Description: The compound of formula (1) is a particularly preferred PPAR alpha agonist and is described in WO 01/40207 as being of use in human PPAR alpha mediated diseases. The dosage regime contemplated in WO 01/40207 is 0.02-5000 mg per day. […] Thus the invention further provides a pharmaceutical composition comprising less than 1-100 μg Compound (1) or pharmaceutically acceptable salts, solvates and physiologically functional derivatives thereof together with a pharmaceutically acceptable carrier. Preferably the composition comprises less than 20 μg, more preferably 1-18 μg, most preferably 1-10 μg.

Structure (SMILES): Cc1nc(-c2ccc(C(F)(F)F)cc2)sc1C(=O)NCc1ccc(OC(C)(C)C(=O)O)cc1 [Compound 1, 2-methyl-2-[4-{[(4-methyl-2-[4-trifluoromethylphenyl]-thiazol-5-ylcarbonyl)amino]methyl}phenoxy]propionic acid]
- Dosage regime at which the compound is effective: less than 0.02 mg per day
